This passage reports IC50, EC50 and AC50 results from ChEMBL document CHEMBL1201862, “PubChem BioAssay data set” (2004).

Each structure is given as a SMILES string. Activity calls are given as the source filed them. A value given as a limit tells only on which side of the number the result lay.

Experiment [1] deals with T1, Mu-type opioid receptor (Homo sapiens, UniProt P35372). Description: MOR antagonists, SAR follow-up, image-based (AID 2420).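 Note: compounds added before stimulation of receptor with agonist DAMGO.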 Format: functional.
For experiment [2], the target named is T2, Delta-type opioid receptor (Homo sapiens, UniProt P41143). Kind of experiment: DOR antagonists, SAR follow-up, image-based (AID 2357). Format: functional.
Experiment [3] concerns the target T3, Kappa-type opioid receptor (Homo sapiens, UniProt P41145). Kind of experiment: KOR antagonists by imaging, SAR follow-up, image-based (AID 2348). The experiment is classed as functional.
Experiment [4] concerns the target T3, Kappa-type opioid receptor. Description: KOR agonist analogs, imaging readout, SAR follow-up, image-based (AID 2359). The experiment is classed as functional.
The target in experiment [5] is T3, Kappa-type opioid receptor. Description: kappa opioid receptor blockers, cell-based, luminescence, beta-arrestin, SAR follow-up (AID 2285). Format: functional.
The target in experiment [6] is T2, Delta-type opioid receptor. Kind of experiment: DOR agonists, SAR follow-up, image-based (AID 2370). The experiment is classed as functional.
In experiment [7] the target is T1, Mu-type opioid receptor. Description: MOR agonists by imaging, SAR follow-up, image-based (AID 2352). Format: functional.
For another experiment, the target named is T4, Caspase-3 (Homo sapiens, UniProt P42574).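 Note: Dose-response selectivity test against caspase-3 for candidate inhibitors of sentrin-specific proteases (SENPs).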
T4 sequence (P42574 whole entry): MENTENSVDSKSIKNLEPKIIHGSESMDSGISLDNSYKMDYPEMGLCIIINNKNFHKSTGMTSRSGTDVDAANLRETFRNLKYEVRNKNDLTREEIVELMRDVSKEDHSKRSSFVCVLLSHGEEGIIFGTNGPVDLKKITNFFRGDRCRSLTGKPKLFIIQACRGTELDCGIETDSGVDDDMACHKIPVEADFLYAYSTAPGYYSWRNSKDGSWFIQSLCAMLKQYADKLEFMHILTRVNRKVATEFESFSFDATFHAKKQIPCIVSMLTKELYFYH
Format: functional.

A further experiment deals with Exodeoxyribonuclease V (Escherichia coli (strain K12), UniProt P04993+P07648+P08394). Kind of experiment: E. coli RecBCD inhibitors, dose response, counter-screen for AddAB inhibitor project, absorbance, V66 E. coli, mutant T4 phage (AID 492957). Format: functional, cell-based, Escherichia coli str. K-12 substr. MG1655. A general note: Counterscreens check selectivity or assay interference.

Experiment [8] has as its target T5, Sentrin-specific protease 6 (Homo sapiens, UniProt Q9GZR1).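 Note: Luminescence-based dose-response confirmatory assay of SENP6 inhibition, following up an ultra-high-throughput screen.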
T5 sequence (Q9GZR1 whole entry): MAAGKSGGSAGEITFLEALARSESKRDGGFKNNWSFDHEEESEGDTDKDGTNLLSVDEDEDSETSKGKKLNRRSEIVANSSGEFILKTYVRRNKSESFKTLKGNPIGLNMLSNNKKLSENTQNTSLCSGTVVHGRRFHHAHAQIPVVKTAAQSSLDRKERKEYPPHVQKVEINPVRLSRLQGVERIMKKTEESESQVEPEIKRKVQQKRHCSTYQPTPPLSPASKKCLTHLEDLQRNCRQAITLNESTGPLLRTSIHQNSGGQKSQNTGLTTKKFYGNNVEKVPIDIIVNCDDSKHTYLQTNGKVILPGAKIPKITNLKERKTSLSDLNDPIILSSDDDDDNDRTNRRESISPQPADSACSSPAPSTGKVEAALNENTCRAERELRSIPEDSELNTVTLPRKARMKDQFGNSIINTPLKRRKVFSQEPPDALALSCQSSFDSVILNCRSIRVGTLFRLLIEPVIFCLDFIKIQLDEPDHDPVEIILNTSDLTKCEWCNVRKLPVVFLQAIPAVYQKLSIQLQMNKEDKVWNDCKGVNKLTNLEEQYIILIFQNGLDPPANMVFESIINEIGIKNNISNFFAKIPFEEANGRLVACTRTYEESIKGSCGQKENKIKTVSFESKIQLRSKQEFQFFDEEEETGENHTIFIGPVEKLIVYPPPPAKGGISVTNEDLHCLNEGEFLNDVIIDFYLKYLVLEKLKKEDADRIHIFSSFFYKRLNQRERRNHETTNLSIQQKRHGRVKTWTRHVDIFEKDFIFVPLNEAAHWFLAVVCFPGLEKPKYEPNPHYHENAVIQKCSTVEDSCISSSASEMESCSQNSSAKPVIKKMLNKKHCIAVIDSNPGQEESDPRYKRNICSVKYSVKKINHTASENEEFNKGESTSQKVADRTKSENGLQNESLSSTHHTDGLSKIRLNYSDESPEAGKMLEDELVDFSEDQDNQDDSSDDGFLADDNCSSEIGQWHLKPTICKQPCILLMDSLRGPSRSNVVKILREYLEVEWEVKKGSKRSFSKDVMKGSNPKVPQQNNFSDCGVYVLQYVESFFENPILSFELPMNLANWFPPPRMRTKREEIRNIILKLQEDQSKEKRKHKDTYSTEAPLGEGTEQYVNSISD
The experiment is classed as functional.

The target in experiment [9] is T6, Sentrin-specific protease 7 (Homo sapiens, UniProt Q9BQF6).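 Note: Luminescence-based dose-response confirmation of ultra-high-throughput screening hits, measuring inhibition of SENP7.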
T6 sequence (Q9BQF6 whole entry): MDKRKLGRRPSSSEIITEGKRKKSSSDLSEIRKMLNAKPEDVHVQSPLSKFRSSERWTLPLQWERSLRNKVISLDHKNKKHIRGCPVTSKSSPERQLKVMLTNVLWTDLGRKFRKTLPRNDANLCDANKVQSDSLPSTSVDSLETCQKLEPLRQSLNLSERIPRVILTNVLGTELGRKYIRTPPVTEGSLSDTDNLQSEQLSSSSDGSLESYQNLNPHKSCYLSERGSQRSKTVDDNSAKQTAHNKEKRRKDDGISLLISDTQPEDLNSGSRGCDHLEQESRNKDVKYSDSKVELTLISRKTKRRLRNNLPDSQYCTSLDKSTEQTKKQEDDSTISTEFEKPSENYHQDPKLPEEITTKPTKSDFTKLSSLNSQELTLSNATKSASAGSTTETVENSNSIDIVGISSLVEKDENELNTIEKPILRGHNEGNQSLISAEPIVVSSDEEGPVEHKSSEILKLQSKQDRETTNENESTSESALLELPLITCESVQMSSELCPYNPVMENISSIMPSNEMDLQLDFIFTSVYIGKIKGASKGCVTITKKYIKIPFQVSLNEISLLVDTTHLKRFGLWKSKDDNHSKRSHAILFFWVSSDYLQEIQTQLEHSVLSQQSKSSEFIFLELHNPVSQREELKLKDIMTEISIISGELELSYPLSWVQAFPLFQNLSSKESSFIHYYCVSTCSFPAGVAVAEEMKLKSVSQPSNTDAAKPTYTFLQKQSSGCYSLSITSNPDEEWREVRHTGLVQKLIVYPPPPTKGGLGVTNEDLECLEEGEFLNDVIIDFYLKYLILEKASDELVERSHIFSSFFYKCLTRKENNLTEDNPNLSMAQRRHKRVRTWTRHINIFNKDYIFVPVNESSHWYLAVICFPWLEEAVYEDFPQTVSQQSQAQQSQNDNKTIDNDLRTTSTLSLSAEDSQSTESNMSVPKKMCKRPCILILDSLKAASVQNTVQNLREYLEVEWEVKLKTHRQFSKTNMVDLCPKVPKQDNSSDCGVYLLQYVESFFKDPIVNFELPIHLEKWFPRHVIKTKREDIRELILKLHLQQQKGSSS
The experiment is classed as functional.

In experiment [10] the target is T7, Sentrin-specific protease 8 (Homo sapiens, UniProt Q96LD8).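 Note: luminescence read-out of SENP8 inhibition, dose-response confirmation following an ultra-high-throughput screen.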
T7 sequence (Q96LD8 whole entry): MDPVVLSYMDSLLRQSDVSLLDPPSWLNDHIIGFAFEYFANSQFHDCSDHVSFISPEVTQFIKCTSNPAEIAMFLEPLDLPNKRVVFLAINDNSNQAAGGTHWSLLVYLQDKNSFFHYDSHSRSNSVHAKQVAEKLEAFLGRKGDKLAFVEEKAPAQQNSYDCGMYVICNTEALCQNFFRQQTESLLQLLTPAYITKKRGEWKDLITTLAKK
Format: functional.

The target in experiment [11] is Mitochondrial peptide methionine sulfoxide reductase (Bos taurus, UniProt P54149). Description: Absorbance-based biochemical high throughput dose response assay for activators of Methionine sulfoxide reductase A (MsrA). Format: functional.
A short description of experiment [12]: Counterscreen for AddAB inhibitors: absorbance-based bacterial cell-based high throughput dose response assay for inhibitors of bacterial viability. [Related pubchem assays (depositor defined):AID435030, AID449728, AID449731, AID488942, AID488955, AID488956]. Format: functional.
Experiment [13] addresses G-protein coupled receptor 55 (Homo sapiens, UniProt Q9Y2T6). Kind of experiment: GPR55 antagonists, SAR follow-up, counter-screen for GPR35 antagonist project, imaging, image-based (AID 2397). The experiment is classed as functional.
In experiment [14] the target is T8, Probable nicotinate-nucleotide adenylyltransferase (Staphylococcus aureus (strain N315), UniProt P65502). Format: functional, Staphylococcus aureus subsp. aureus N315.
The target in experiment [15] is T8, Probable nicotinate-nucleotide adenylyltransferase. Format: functional, Staphylococcus aureus subsp. aureus N315. Conditions: read-out: IC50_Mean.
The nature of experiment [16]: HIV-1 Env-mediated cell fusion inhibitors, dose response, CCR5-tropic Env (AID 2279). Format: functional.
Experiment [17] in a line: growth suppression of PTEN-null colon cells, dose response, cell-based, HCT116 PTEN knockout (AID 1047).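 Note: HCT116 colon tumor cells with PTEN knocked out; cells exposed to compound for 60 hours before readout; potency for loss of cell viability measured by luminescence.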 The experiment is classed as functional.
Experiment [18] is described as follows: growth induction of Burl-1 ts yeast mutant, dose response, counter-screen for SUMOylation pathway inhibitor project, whole organism, S. cerevisiae, luminescence (AID 463199). Format: functional.
Experiment [19] is described as follows: growth suppression of beta-catenin-knockout colon cells, dose response, cell-based, HCT116, human colon tumor (AID 1045).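 Note: HCT116 colon tumor cells with beta catenin knocked out; cells exposed to compound for 60 hours.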 The experiment is classed as functional.
The target in another experiment is Genome polyprotein (Hepatitis C virus, UniProt Q2Q167). Kind of experiment: HCV core protein dimerization inhibitors, dose response, biochemical, TR-FRET (AID 2159).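 Note: blocks dimerization of HCV core protein measured by TR-FRET between tagged core106 pairs.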 Set-up: species or system Hepacivirus hominis. Background: Time-resolved FRET reads energy transfer from a long-lived donor to a nearby acceptor.
Experiment [20] in a line: cells. Format: functional, cell-based.
Experiment [21] can be described thus: cells. Format: functional, cell-based. The source holds these as a separate data set.
The subject of another experiment is HEK293. Description: inhibitors of LMP1-driven NF-kB reporter, dose response, cell-based, HEK293, luciferase, cherry-pick (AID 588343). The experiment is classed as functional. Conditions: Homo sapiens.
Experiment [22] has as its target Lysine-specific demethylase 4C (Homo sapiens, UniProt Q9H3R0). Description: GASC-1 (JMJD2C) histone demethylase inhibitors, dose response, biochemical, DELFIA europium, cherry-picked samples (AID 488835). Format: functional.
For another experiment, the system named is INS1. Description: beta cell apoptosis inhibitors, cytokine rescue, dose response, luminescence, retest (AID 449756).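 Note: cell death triggered by IL-1 beta plus TNF-alpha plus IFN-gamma mixture; protective hits raise ATP signal compared with cytokine alone wells.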 The conditions noted are these: Rattus norvegicus. The experiment is classed as functional, cell-based.
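Throughout, for IC50 Mean: confirmatory dose-response retesting of NadD inhibitor hits first found in an ultra-high-throughput screen.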

T3 sequence (P41145 whole entry): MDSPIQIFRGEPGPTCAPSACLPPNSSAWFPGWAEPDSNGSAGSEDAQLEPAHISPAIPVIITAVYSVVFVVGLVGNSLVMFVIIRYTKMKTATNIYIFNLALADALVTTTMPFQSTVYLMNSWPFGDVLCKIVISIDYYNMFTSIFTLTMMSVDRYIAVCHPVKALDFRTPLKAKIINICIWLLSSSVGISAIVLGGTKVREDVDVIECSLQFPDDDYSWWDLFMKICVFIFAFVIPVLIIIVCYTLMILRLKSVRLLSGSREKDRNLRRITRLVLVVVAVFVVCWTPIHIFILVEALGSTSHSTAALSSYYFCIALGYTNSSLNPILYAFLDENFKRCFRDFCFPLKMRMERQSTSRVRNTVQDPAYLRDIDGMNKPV
T8 sequence (P65502 whole entry): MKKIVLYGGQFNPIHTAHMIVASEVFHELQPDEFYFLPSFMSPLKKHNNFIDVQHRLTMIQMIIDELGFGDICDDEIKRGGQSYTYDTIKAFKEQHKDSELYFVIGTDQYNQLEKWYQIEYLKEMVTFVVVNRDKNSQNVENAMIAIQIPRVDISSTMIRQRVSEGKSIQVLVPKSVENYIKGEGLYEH
T1 sequence (P35372 whole entry): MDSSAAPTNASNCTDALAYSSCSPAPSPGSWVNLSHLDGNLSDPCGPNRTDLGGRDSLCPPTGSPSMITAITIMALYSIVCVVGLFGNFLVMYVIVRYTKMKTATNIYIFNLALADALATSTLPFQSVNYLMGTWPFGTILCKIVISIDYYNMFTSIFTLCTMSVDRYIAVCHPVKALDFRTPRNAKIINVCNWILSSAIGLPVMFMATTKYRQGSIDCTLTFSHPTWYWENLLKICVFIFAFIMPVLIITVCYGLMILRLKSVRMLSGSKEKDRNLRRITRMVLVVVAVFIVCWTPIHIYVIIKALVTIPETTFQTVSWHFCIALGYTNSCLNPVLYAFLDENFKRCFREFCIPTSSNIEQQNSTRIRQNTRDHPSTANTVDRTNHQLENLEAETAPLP
T2 sequence (P41143 whole entry): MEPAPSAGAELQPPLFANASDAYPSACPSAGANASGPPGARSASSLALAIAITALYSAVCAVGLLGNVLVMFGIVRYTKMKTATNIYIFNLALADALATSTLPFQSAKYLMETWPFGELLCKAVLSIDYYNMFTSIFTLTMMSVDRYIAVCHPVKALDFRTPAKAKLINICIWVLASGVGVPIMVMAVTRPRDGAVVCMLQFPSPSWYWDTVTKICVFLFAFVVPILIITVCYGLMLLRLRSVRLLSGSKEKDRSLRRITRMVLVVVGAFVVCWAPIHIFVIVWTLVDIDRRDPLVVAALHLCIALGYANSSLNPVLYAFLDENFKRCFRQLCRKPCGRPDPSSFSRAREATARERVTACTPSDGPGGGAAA
Sequence of Mitochondrial peptide methionine sulfoxide reductase (P54149 whole entry): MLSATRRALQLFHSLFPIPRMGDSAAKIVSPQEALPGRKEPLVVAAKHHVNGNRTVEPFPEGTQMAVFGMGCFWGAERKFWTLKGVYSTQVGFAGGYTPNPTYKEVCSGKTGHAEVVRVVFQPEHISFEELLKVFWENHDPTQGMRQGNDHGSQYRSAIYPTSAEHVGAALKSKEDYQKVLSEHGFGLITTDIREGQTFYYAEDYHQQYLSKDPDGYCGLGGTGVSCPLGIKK
Sequence of Lysine-specific demethylase 4C (Q9H3R0 whole entry): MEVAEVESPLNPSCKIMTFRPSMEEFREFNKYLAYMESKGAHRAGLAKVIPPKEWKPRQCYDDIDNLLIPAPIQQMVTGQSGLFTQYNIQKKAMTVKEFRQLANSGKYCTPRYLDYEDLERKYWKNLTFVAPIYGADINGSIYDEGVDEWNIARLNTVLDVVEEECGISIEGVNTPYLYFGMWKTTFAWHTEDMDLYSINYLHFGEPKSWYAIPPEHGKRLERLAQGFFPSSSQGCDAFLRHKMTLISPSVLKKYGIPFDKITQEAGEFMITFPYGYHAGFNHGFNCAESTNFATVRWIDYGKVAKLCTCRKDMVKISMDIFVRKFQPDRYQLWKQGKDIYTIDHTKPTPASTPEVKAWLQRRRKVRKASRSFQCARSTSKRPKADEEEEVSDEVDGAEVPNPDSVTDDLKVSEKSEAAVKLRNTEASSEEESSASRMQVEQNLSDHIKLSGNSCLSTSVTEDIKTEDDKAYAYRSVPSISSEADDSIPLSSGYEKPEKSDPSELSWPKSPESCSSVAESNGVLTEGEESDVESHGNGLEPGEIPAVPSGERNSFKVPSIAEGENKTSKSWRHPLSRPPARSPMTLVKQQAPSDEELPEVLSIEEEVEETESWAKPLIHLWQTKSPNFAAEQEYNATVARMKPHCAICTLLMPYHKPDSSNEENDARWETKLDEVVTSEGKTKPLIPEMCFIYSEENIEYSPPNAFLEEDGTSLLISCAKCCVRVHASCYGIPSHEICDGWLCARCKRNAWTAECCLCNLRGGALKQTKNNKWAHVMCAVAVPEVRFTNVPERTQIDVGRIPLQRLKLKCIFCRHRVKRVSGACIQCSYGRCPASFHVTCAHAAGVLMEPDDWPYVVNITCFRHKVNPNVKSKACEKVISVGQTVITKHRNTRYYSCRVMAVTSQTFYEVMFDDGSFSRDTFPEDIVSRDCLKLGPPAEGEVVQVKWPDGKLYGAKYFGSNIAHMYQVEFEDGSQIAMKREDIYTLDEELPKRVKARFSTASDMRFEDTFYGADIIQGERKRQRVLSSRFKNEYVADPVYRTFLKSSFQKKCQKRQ
Sequence of Genome polyprotein (Q2Q167 whole entry): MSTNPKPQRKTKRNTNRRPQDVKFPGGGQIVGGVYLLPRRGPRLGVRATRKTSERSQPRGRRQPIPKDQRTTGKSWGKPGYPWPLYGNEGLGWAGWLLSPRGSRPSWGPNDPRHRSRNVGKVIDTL
Sequence of G-protein coupled receptor 55 (Q9Y2T6 whole entry): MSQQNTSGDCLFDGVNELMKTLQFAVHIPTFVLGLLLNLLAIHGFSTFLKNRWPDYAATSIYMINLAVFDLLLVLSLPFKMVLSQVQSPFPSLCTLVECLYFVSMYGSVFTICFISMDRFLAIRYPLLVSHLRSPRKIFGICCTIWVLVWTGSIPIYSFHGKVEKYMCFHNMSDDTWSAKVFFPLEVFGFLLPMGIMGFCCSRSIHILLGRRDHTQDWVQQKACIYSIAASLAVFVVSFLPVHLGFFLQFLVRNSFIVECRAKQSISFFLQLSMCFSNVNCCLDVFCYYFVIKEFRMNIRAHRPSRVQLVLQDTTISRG

With `CC(=O)c1ccc(S(=O)(=O)NCc2ccc(C(=O)N(C)CC(=O)Nc3cccc(F)c3)cc2)cc1`, the IC50 on Mu-type opioid receptor [1] is > 32 µM (inactive); in experiment [2] it was > 32 µM (inactive); in experiment [3], > 32 µM (inactive); in experiment [5] it was > 10 µM (inactive). Further, the EC50 (in experiment [4]; in experiment [6]; at Mu-type opioid receptor [7]) was > 32 µM (inactive) in each case.
For `O=C(COC(=O)c1ccc([N+](=O)[O-])s1)c1ccc[nH]1`, the IC50 is 10.2 µM (active) on Caspase-3; > 119 µM (inactive) on Exodeoxyribonuclease V; 6.52 µM (active) in experiment [8]; 18.4 µM (active) in experiment [9]; 5.37 µM (active) in [10]; 104 µM (inactive) in experiment [12]. Further, in [11], the EC50 (as a rule, the concentration at which the effect is half-maximal) is 15.8 µM (inactive).
Regarding `CCC(Sc1nc2ccsc2c(=O)n1Cc1ccc(C(=O)O)cc1)C(=O)Nc1ccc(C)c(Cl)c1` (configuration not stated), the IC50 in experiment [13] was 14.9 µM (inactive); in experiment [14], 6.61 µM (active); in experiment [15] it was 38.6 µM (active); in experiment [16], 47.7 µM (active).
`O=C(N/N=C/C(Br)=C/c1ccccc1)c1[nH]nc2c1CCC2`: the concentration giving a half-maximal response (EC50) in experiment [17] and in [19] was < 0.059 µM (active) throughout. Moreover, the AC50 – broadly, the concentration at which the activity in the assay is half-maximal – in experiment [18] is 120 µM (active). The IC50 against Genome polyprotein is recorded as > 49.8 µM (not active).
On to `COc1cccc(/C=N/Nc2nc3ccccc3[nH]2)c1O`, for which the figures for the concentration giving a half-maximal response (EC50) in “cells [20]” and in “cells [21]” were > 350 µM (not active) and 26.6 µM (active), respectively. Further, the AC50 in the experiment with HEK293 is 3.34 µM (active); in experiment [22] it was 8.63 µM (active); with INS1 it was 2.22 µM (active).
